Measured values published in patent EP0286364B1, “Substituted Di-t-Butylphenols” (RIKER LABORATORIES, INC., priority 1987, dated 1988).

System: male Hartley strain guinea pigs
Experiment: Konzett-Rossler in vivo test, antigen challenge of sensitized guinea pigs
Settings: dosed orally, about 5 to 40 mg/kg, suspension in 4% aqueous acacia; ovalbumin 300 µg/kg intravenously 30 minutes later; bronchoconstrictor response
Experimental: The oral activity of compounds of Formula I may be demonsrated using the Konzett-Rossler in vivo test method. The activity is determined according to the procedure which follows. The Konzett-Rossler technique (H.Konzett and R. Rossler, Naunyn-Schmiedbergs Arch. Pharmakol., 195, 71-74, 1940 is used to assess the effect of compounds of Formula I of the invention on antigen challenge of male Hartley strain guinea pigs (350-500g). Fourteen days after sensitization with ovalbumin (50 mg/kg intraperitoneally) guinea pigs are anesthetized with pentobarbital (70 mg/kg intraperitoneally) and spontaneous respiration is eliminated with succinylcholine (2 mg/kg intra-peritoneally). The trachea is cannulated and respiration is maintained under positive pressure with a minature ventilator (5 ml/breath, 87 breaths/minute, 10 cm water). Bronchoconstrictor responses are represented as increased excursions of the tracing on a physiological recorder of air overflow to the lungs measured by a pneumotachograph in series with a differential pressure transducer. The guinea pigs are pretreated with an antihistamine, for example, chlorpheniramine, and are then dosed orally at a level of about 5 to 40 mg/kg with a suspension of a compound of Formula I of the invention in 4% aqueous acacia. The animals are challenged with ovalbumin (300 »g/kg intravenously) thirty (30) minutes later.

For CC(C)(C)c1cc(C(=O)Nc2cccc(-c3nnn[nH]3)c2)cc(C(C)(C)C)c1O.O [Example 7, 5-[3-(3,5-di-t-butyl-4-hydroxybenzamido)phenyl]tetrazole hydrate], the oral activity was “good oral activity”.
